Measured values published in PubChem BioAssay (NCI).
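Compound exposure: 48 hours, 5 concentrations, 96-well plates. GI50: concentration for 50% inhibition of growth. The concentration for full growth arrest is given as TGI.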

What was measured:
Test in all cases: inhibition of tumour cell growth, NCI panel, 48 h
MDA-MB-231 breast = system: MDA-MB-231 breast
IGROV1 ovarian = system: IGROV1 ovarian
NCI-H23 lung = system: NCI-H23 lung
MDA-MB-435 = system: MDA-MB-435
CCRF-CEM leukemia = system: CCRF-CEM leukemia
OVCAR-5 ovarian = system: OVCAR-5 ovarian
HS 578T breast = system: HS 578T breast
ACHN renal = system: ACHN renal
DU-145 prostate = system: DU-145 prostate
SN12C renal = system: SN12C renal
SK-MEL-28 melanoma = system: SK-MEL-28 melanoma
HL-60(TB) leukemia = system: HL-60(TB) leukemia
OVCAR-8 ovarian = system: OVCAR-8 ovarian
MCF7 breast = system: MCF7 breast
UACC-257 melanoma = system: UACC-257 melanoma
RXF 393 renal = system: RXF 393 renal
SF-268 CNS = system: SF-268 CNS
RPMI-8226 leukemia = system: RPMI-8226 leukemia
SK-OV-3 ovarian = system: SK-OV-3 ovarian
HOP-92 NSCLC = system: HOP-92 NSCLC
TK-10 renal = system: TK-10 renal
PC-3 prostate = system: PC-3 prostate
CAKI-1 renal = system: CAKI-1 renal
MOLT-4 leukemia = system: MOLT-4 leukemia
HOP-62 NSCLC = system: HOP-62 NSCLC
UO-31 renal = system: UO-31 renal
OVCAR-4 ovarian = system: OVCAR-4 ovarian
SK-MEL-2 melanoma = system: SK-MEL-2 melanoma
SNB-19 CNS = system: SNB-19 CNS
OVCAR-3 ovarian = system: OVCAR-3 ovarian
SNB-75 CNS = system: SNB-75 CNS
HCC-2998 colon = system: HCC-2998 colon
K-562 leukemia = system: K-562 leukemia
U251 CNS = system: U251 CNS
COLO 205 colon = system: COLO 205 colon
LOX IMVI melanoma = system: LOX IMVI melanoma
SK-MEL-5 melanoma = system: SK-MEL-5 melanoma
MALME-3M melanoma = system: MALME-3M melanoma
T-47D breast = system: T-47D breast
NCI/ADR-RES ovarian = system: NCI/ADR-RES ovarian
SR leukemia = system: SR leukemia
KM12 colon = system: KM12 colon
SW-620 colon = system: SW-620 colon
A498 renal = system: A498 renal
HT29 colon = system: HT29 colon
SF-539 CNS = system: SF-539 CNS
HCT-15 colon = system: HCT-15 colon
M14 melanoma = system: M14 melanoma
NCI-H522 lung = system: NCI-H522 lung
SF-295 CNS = system: SF-295 CNS
NCI-H226 lung = system: NCI-H226 lung
A549 NSCLC = system: A549 NSCLC
NCI-H460 lung = system: NCI-H460 lung
786-0 renal = system: 786-0 renal
UACC-62 melanoma = system: UACC-62 melanoma
HCT-116 colon = system: HCT-116 colon
BT-549 breast = system: BT-549 breast
EKVX NSCLC = system: EKVX NSCLC

SMILES: CCN(CC)CCCNc1cc(OC)cc2nc3cc(Cl)ccc3nc12
- GI50 (MDA-MB-231 breast): 2710 nM
- TGI (MDA-MB-231 breast): 11.7 µM
- GI50 (IGROV1 ovarian): 1960 nM
- TGI (IGROV1 ovarian): 6.78 µM
- GI50 (NCI-H23 lung): 1790 nM
- TGI (NCI-H23 lung): 4.32 µM
- GI50 (MDA-MB-435): 1870 nM
- TGI (MDA-MB-435): 3.97 µM
- GI50 (CCRF-CEM leukemia): 2520 nM
- TGI (CCRF-CEM leukemia): 11.1 µM
- GI50 (OVCAR-5 ovarian): 3.56 µM
- TGI (OVCAR-5 ovarian): 16.3 µM
- GI50 (HS 578T breast): 2530 nM
- TGI (HS 578T breast): 9.48 µM
- GI50 (ACHN renal): 1330 nM
- TGI (ACHN renal): 11.8 µM
- GI50 (DU-145 prostate): 2530 nM
- TGI (DU-145 prostate): 12.4 µM
- GI50 (SN12C renal): 1090 nM
- TGI (SN12C renal): 14.5 µM
- GI50 (SK-MEL-28 melanoma): 1790 nM
- TGI (SK-MEL-28 melanoma): 3.21 µM
- GI50 (HL-60(TB) leukemia): 2220 nM
- TGI (HL-60(TB) leukemia): 6.66 µM
- GI50 (OVCAR-8 ovarian): 838 nM
- TGI (OVCAR-8 ovarian): 10.2 µM
- GI50 (MCF7 breast): 1500 nM
- TGI (MCF7 breast): 6.51 µM
- GI50 (UACC-257 melanoma): 1830 nM
- TGI (UACC-257 melanoma): 3.31 µM
- GI50 (RXF 393 renal): 1250 nM
- TGI (RXF 393 renal): 2630 nM
- GI50 (SF-268 CNS): 1620 nM
- TGI (SF-268 CNS): 8.26 µM
- GI50 (RPMI-8226 leukemia): 2530 nM
- TGI (RPMI-8226 leukemia): 6.25 µM
- GI50 (SK-OV-3 ovarian): 3.6 µM
- TGI (SK-OV-3 ovarian): 14.6 µM
- GI50 (HOP-92 NSCLC): 1690 nM
- TGI (HOP-92 NSCLC): 9.5 µM
- GI50 (TK-10 renal): 1850 nM
- TGI (TK-10 renal): 5.8 µM
- GI50 (PC-3 prostate): 1970 nM
- TGI (PC-3 prostate): 7.43 µM
- GI50 (CAKI-1 renal): 1750 nM
- TGI (CAKI-1 renal): 5.03 µM
- GI50 (MOLT-4 leukemia): 1280 nM
- TGI (MOLT-4 leukemia): 13.7 µM
- GI50 (HOP-62 NSCLC): 2470 nM
- TGI (HOP-62 NSCLC): 8.44 µM
- GI50 (UO-31 renal): 1190 nM
- TGI (UO-31 renal): 4.08 µM
- GI50 (OVCAR-4 ovarian): 1670 nM
- TGI (OVCAR-4 ovarian): 3.51 µM
- GI50 (SK-MEL-2 melanoma): 1750 nM
- TGI (SK-MEL-2 melanoma): 3.43 µM
- GI50 (SNB-19 CNS): 2770 nM
- TGI (SNB-19 CNS): 11.7 µM
- GI50 (OVCAR-3 ovarian): 2060 nM
- TGI (OVCAR-3 ovarian): 5.9 µM
- GI50 (SNB-75 CNS): 1700 nM
- TGI (SNB-75 CNS): 4.35 µM
- GI50 (HCC-2998 colon): 1470 nM
- TGI (HCC-2998 colon): 2920 nM
- GI50 (K-562 leukemia): 1540 nM
- TGI (K-562 leukemia): 11.6 µM
- GI50 (U251 CNS): 1220 nM
- TGI (U251 CNS): 3.68 µM
- GI50 (COLO 205 colon): 956 nM
- TGI (COLO 205 colon): 2260 nM
- GI50 (LOX IMVI melanoma): 913 nM
- TGI (LOX IMVI melanoma): 2250 nM
- GI50 (SK-MEL-5 melanoma): 1590 nM
- TGI (SK-MEL-5 melanoma): 2960 nM
- GI50 (MALME-3M melanoma): 1680 nM
- TGI (MALME-3M melanoma): 3.35 µM
- GI50 (T-47D breast): 6.62 µM
- TGI (T-47D breast): 20.7 µM
- GI50 (NCI/ADR-RES ovarian): 1640 nM
- TGI (NCI/ADR-RES ovarian): 8.52 µM
- GI50 (SR leukemia): 633 nM
- TGI (SR leukemia): 18 µM
- GI50 (KM12 colon): 1300 nM
- TGI (KM12 colon): 3.43 µM
- GI50 (SW-620 colon): 779 nM
- TGI (SW-620 colon): 11.2 µM
- GI50 (A498 renal): 1270 nM
- TGI (A498 renal): 2700 nM
- GI50 (HT29 colon): 399 nM
- TGI (HT29 colon): 1870 nM
- GI50 (SF-539 CNS): 8.36 µM
- TGI (SF-539 CNS): 21.7 µM
- GI50 (HCT-15 colon): 4.12 µM
- TGI (HCT-15 colon): 35.4 µM
- GI50 (M14 melanoma): 1610 nM
- TGI (M14 melanoma): 3.02 µM
- GI50 (NCI-H522 lung): 1340 nM
- TGI (NCI-H522 lung): 3.08 µM
- GI50 (SF-295 CNS): 2330 nM
- TGI (SF-295 CNS): 6.48 µM
- GI50 (NCI-H226 lung): 1480 nM
- TGI (NCI-H226 lung): 3.76 µM
- GI50 (A549 NSCLC): 1180 nM
- TGI (A549 NSCLC): 5.3 µM
- GI50 (NCI-H460 lung): 1830 nM
- TGI (NCI-H460 lung): 10.3 µM
- GI50 (786-0 renal): 1180 nM
- TGI (786-0 renal): 3.5 µM
- GI50 (UACC-62 melanoma): 2190 nM
- TGI (UACC-62 melanoma): 4.25 µM
- GI50 (HCT-116 colon): 508 nM
- TGI (HCT-116 colon): 3.63 µM
- GI50 (BT-549 breast): 4.95 µM
- TGI (BT-549 breast): 15.3 µM
- GI50 (EKVX NSCLC): 3.04 µM
- TGI (EKVX NSCLC): 14.1 µM
